Measurements taken from US7485455B2, “Nucleic acid encoding sodium channel subunit” (Wisconsin Alumni Research Foundation, priority 2002, dated 2009).

System: untransfected HEK cells (endogenous currents)
Conditions: incubation with mexiletine 100 μM for 24 hours, n=10, not significantly increased

Cc1cccc(C)c1OCC(C)N (stereo not shown) [mexiletine]
endogenous current density: 1.1±0.4 pA/pF
